Experimental data published in US20090176759A1, “LEUKEMIC STEM CELL ABLATION” (ChemGenex Pharmaceuticals, Inc., priority 2007, published 2009).

Test: Phase 2/3 study of subcutaneous omacetaxine, safety and tolerability
Format: in vivo, human
Procedure: A multicenter open-label phase 2/3 study evaluating safety and efficacy of omacetaxine administered subcutaneously (SC) in patients with IM-resistant T315I+CML in all phases of the disease is being conducted.
Induction phase—1.25 mg/m2 twice daily SC for 14 consecutive days every 28 days until complete hematologic response (CHR) or hematologic improvement has been achieved.
Maintenance therapy—1.25 mg/m2 twice daily SC for 7 days every 28 days for up to 24 months.
Doses were adjusted to maintain adequate WBC and platelet control by increasing or decreasing the number of days of administration of omacetaxine.
Includes all events considered related, probably related, possibly related, or with unknown relationship to omacetaxine treatment. Events listed in the table are included if occurrence was >5% of the total population (at least 1 of 23 patients).

COC(=O)C[C@](O)(CCCC(C)(C)O)C(=O)O[C@@H]1C(OC)=C[C@]23CCCN2CCc2cc4c(cc2[C@H]13)OCO4 [HHT, Homoharringtonine]
Treatment-Related Serious Adverse Events: Neutropenic Fever (Accelerated Phase): 1 (9) Number (percent) | Treatment-Related Serious Adverse Events: Thrombocytopenia (Accelerated Phase): 0 Number (percent) | Grade 3/4 Toxicities: Anemia (Accelerated Phase, N = 5): 2 (40) number (percent) | Grade 3/4 Toxicities: Diarrhea (Accelerated Phase, N = 5): 1 (20) number (percent) | Grade 3/4 Toxicities: Febrile neutropenia (Accelerated Phase, N = 5): 2 (40) number (percent) | Grade 3/4 Toxicities: Neutropenia (Accelerated Phase, N = 5): 2 (40) number (percent) | Grade 3/4 Toxicities: Pancytopenia (Accelerated Phase, N = 5): 2 (40) number (percent) | Grade 3/4 Toxicities: Thrombocytopenia (Accelerated Phase, N = 5): 3 (60) number (percent) | Treatment-Related Serious Adverse Events: Acute Coronary Syndrome* (Accelerated Phase, N = 6): 0 Number (percent) | Deaths on study (BP patients with progressive disease, none considered related to the study drug): 3 deaths | Grade 3/4 Toxicities: Anemia (Blast Phase, N = 6): 1 (17) number (percent) | Grade 3/4 Toxicities: Diarrhea (Blast Phase, N = 6): 1 (17) number (percent) | Grade 3/4 Toxicities: Febrile neutropenia (Blast Phase, N = 6): 2 (40) number (percent) | Grade 3/4 Toxicities: Neutropenia (Blast Phase, N = 6): 2 (33) number (percent) | Grade 3/4 Toxicities: Pancytopenia (Blast Phase, N = 6): 0 number (percent) | Grade 3/4 Toxicities: Thrombocytopenia (Blast Phase, N = 6): 1 (17) number (percent) | Treatment-Related Serious Adverse Events: Acute Coronary Syndrome* (Blast Phase, N = 6): 0 Number (percent) | Treatment-Related Serious Adverse Events: Neutropenic Fever (Blast Phase, N = 6): 1 (9) Number (percent) | Treatment-Related Serious Adverse Events: Thrombocytopenia (Blast Phase, N = 6): 0 Number (percent) | Grade 3/4 Toxicities: Anemia (Chronic Phase, N = 12): 7 (58) number (percent) | Grade 3/4 Toxicities: Diarrhea (Chronic Phase, N = 12): 2 (17) number (percent) | Grade 3/4 Toxicities: Febrile neutropenia (Chronic Phase, N = 12): 1 (9) number (percent) | Grade 3/4 Toxicities: Neutropenia (Chronic Phase, N = 12): 6 (50) number (percent) | Grade 3/4 Toxicities: Pancytopenia (Chronic Phase, N = 12): 1 (9) number (percent) | Grade 3/4 Toxicities: Thrombocytopenia (Chronic Phase, N = 12): 8 (67) number (percent) | Treatment-Related Serious Adverse Events: Neutropenic Fever (Chronic Phase, N = 12): 1 (9) Number (percent) | Treatment-Related Serious Adverse Events: Thrombocytopenia (Chronic Phase, N = 12): 1 (9) Number (percent) | Treatment-Related Serious Adverse Events: Acute Coronary Syndrome* (Chronic Phase, N = 12, considered secondary to omacetaxine induced anemia): 1 (9) Number (percent) | Grade 3/4 Toxicities: Anemia (Total, N = 23): 10 (43) number (percent) | Grade 3/4 Toxicities: Diarrhea (Total, N = 23): 4 (17) number (percent) | Grade 3/4 Toxicities: Febrile neutropenia (Total, N = 23): 5 (22) number (percent) | Grade 3/4 Toxicities: Neutropenia (Total, N = 23): 10 (43) number (percent) | Grade 3/4 Toxicities: Pancytopenia (Total, N = 23): 3 (13) number (percent) | Grade 3/4 Toxicities: Thrombocytopenia (Total, N = 23): 12 (52) number (percent) | Treatment-Related Serious Adverse Events: Acute Coronary Syndrome* (Total, N = 23): 1 (4) Number (percent) | Treatment-Related Serious Adverse Events: Neutropenic Fever (Total, N = 23): 3 (13) Number (percent) | Treatment-Related Serious Adverse Events: Thrombocytopenia (Total, N = 23): 1 (4) Number (percent) | Grade 1/2 injection site erythema, patients (number (%) of patients): 6 (23%) | Grade 1/2 injection site pain, patients (number (%) of patients): 3 (13%) | Dose delays (of induction cycles): 75% | Dose delays (of maintenance cycles): 80% | myelosuppression (most common side effect) (subcutaneously administered): usually transient and reversible, and rarely results in serious clinical complications | tolerability (subcutaneously administered): generally well tolerated
